Test results as given in publication PMC8344022, “Small-molecule inhibitor of AF9/ENL-DOT1L/AF4/AFF4 interactions suppresses malignant gene expression and tumor growth” (Theranostics, 2021).
Several values for one entry are separate records, joined by “and”; a condition that tells them apart may be missing. Equal entries are not always repeated. No end group written: not given here. *: point of attachment. FITC = O=C1OC2(c3ccc(O)cc3Oc3cc(O)ccc32)c2ccc(NC(=S)*)cc21; Ahx = NCCCCCC(=O)O

Tests used:
[1] = target: T1, AF9-DOT1L interaction (Homo sapiens, UniProt P42568); test: Alpha assay, AF9 AHD-DOT1L peptide interaction; assay type: binding; conditions: for IC50: read-out: IC50, inhibition of AF9-DOT1L interaction
T1 construct: cDNA for human AF9 AHD domain (475-568) and ENL AHD domain (489-559) was synthesized; made in house; host or cells: E. coli BL21(DE3)
T1 sequence (P42568 475-568): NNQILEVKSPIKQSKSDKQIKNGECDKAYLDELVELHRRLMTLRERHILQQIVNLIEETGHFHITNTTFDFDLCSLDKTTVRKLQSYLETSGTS
Text: (§1) We developed an Alpha (amplified luminescent proximity homogeneous assay) assay to determine the binding and inhibition of the PPI between maltose-binding protein (MBP)-tagged AF9 AHD and a biotin-labeled DOT1L peptide, using AlphaLisa streptavidin donor beads and anti-MBP acceptor beads. Laser excitation to the donor beads generates singlet oxygen radicals, which can travel for <200 nm in solution and cannot reach the free acceptor beads. The PPI brings the DOT1L coated donor beads and AHD coated acceptor beads together, allowing the radicals to activate the acceptor beads and produce luminescence. […] We also developed a fluorescence polarization (FP) assay. A fluorescein-labeled DOT1L peptide has a higher freedom in solution with a lower polarization value.
(§2) Alpha assays. Alpha assays were developed using Perkin-Elmer AlphaLisa anti-MBP kit, which contains streptavidin donor beads and anti-MBP acceptor beads. The assay was performed using a MBP-protein (5 nM), a biotinylated peptide (40 nM), and increasing concentrations of a compound in 25 µL buffer (PBS with 0.5 % BSA, pH 7.5) in 384-well plates according to the manufacturer's protocol and measured with a Tecan SPARK microplate reader. Data were imported into Prism (version 5.0), and IC50 values from 3 independent experiments with standard deviation were obtained by using a standard dose-response curve fitting.

[2] = target: T1, AF9-DOT1L interaction; test: Fluorescence polarization (FP) inhibition assay, AF9-DOT1L; assay type: binding
Text: as §1
Fluorescence polarization assay. It was performed in 96-well black microplates with each well containing a Fluorescein-labeled peptide (2 nM) and increasing concentration of a AF9/ENL protein in a buffer (20 mM HEPES, pH 7.5, 0.01% Triton X-100, 100 µL) for Kd determination. For IC50 determination, a Fluorescein-labeled peptide (2 nM), AF9/ENL protein (100 nM) and increasing concentration of a compound in the same buffer were placed in each well. Upon incubation of 1h, the FP value of each well was determined using a Tecan SPARK microplate reader. Data were similarly processed to obtain Kd or IC50 values.

[3] = target: T2, AF9 AHD bound to DOT1L-coated beads (Homo sapiens, UniProt P42568); test: Western blot based pull-down assay; assay type: binding; conditions: increasing concentrations
T2 construct: cDNA for human AF9 AHD domain (475-568) and ENL AHD domain (489-559) was synthesized; made in house; host or cells: E. coli BL21(DE3)
Description: A non-optical pull-down assay was used to further validate compound 1. DOT1L-coated beads were incubated with AF9 AHD in the presence of increasing concentrations of 1.
Western blot based pull-down assay. Biotinylated DOT1L peptide (0.25 mg/mL) was incubated with streptavidin agarose beads in PBS containing 0.1% Triton X-100 (400 µL) for 3h to yield, after washing, DOT1L-coated beads. MBP-AF9 AHD (0.2 µM, 40 µL) was pre-incubated with a compound for 30 min before adding to the beads. After 6 hours incubation at 4 °C, the beads were collected, thoroughly washed, and subjected to SDS-PAGE and analyzed by Western blot using an MBP Mouse mAb (#2396, Cell signaling).

[4] = system: HL60 cells; test: Antiproliferation assay (XTT); assay type: cell-based; conditions: Homo sapiens, HL-60, 168 h, 7-day incubation, read-out: Cytotoxicity EC50
Description: (§3) Antiproliferation assay. Proliferation inhibition assays for suspension blood cancer cells were performed using an XTT assay kit (Roche). Proliferation inhibition assays for solid tumor cell lines MCF-7, MDA-MB-231, Panc1, Panc28 were performed using an MTT assay (Sigma). The antiproliferation EC50 values were determined using Prism 5 and the reported results were the mean values of at least three independent experiments. The incubation time for compound 1 was 7 days and that for EPZ4777 was 14 days.

[5] = system: Jurkat cells; test: Antiproliferation assay (XTT); assay type: cell-based; conditions: Homo sapiens, 168 h, 7-day incubation, read-out: Cytotoxicity EC50
Description: as §3

[6] = system: Kasumi-1 cells; test: Antiproliferation assay (XTT); assay type: cell-based; conditions: Homo sapiens, 168 h, 7-day incubation, read-out: Cytotoxicity EC50
Description: as §3

[7] = system: MV4;11 cells; test: Antiproliferation assay (XTT); assay type: cell-based; conditions: Homo sapiens, 168 h, 7-day incubation, read-out: Cytotoxicity EC50
Description: as §3

[8] = system: Molm-13 cells; test: Antiproliferation assay (XTT); assay type: cell-based; conditions: Homo sapiens, 168 h, 7-day incubation, read-out: Cytotoxicity EC50
Description: as §3

[9] = system: RPMI-8226 cells; test: Antiproliferation assay (XTT); assay type: cell-based; conditions: Homo sapiens, 168 h, 7-day incubation, read-out: Cytotoxicity EC50
Description: as §3

[10] = system: THP-1 cells; test: Antiproliferation assay (XTT); assay type: cell-based; conditions: Homo sapiens, 168 h, 7-day incubation, read-out: Cytotoxicity EC50
Description: as §3

[11] = system: U266 cells; test: Antiproliferation assay (XTT); assay type: cell-based; conditions: Homo sapiens, U-266, 168 h, 7-day incubation, read-out: Cytotoxicity EC50
Description: as §3

[12] = system: MCF-7 cells; test: Antiproliferation assay (MTT); assay type: cell-based; conditions: Homo sapiens, MCF7, 168 h, 7-day incubation, read-out: Cytotoxicity EC50
Description: as §3

[13] = system: MDA-MB-231 cells; test: Antiproliferation assay (MTT); assay type: cell-based; conditions: Homo sapiens, 168 h, 7-day incubation, read-out: Cytotoxicity EC50
Description: as §3

[14] = system: Panc-1 cells; test: Antiproliferation assay (MTT); assay type: cell-based; conditions: Homo sapiens, 168 h, 7-day incubation, read-out: Cytotoxicity EC50
Description: as §3

[15] = system: Panc-28 cells; test: Antiproliferation assay (MTT); assay type: cell-based; conditions: 168 h, 7-day incubation, read-out: Cytotoxicity EC50
Description: as §3

[16] = system: cancer cells; test: Antiproliferation assays, cancer cell panel; assay type: cell-based; conditions: all cancer cells tested; read-out: EC50 against proliferation
Description: The differential antiproliferation activities of compound 1 is consistent with its ability to suppress DOT1L/H3K79 methylation and SEC regulated gene expression, which are critical to MLL-r leukemia and Myc-driven blood cancer, but largely dispensable to other solid tumor cells.
as §3

[17] = system: HoxA9, Meis1 and Myc expression in MV4;11 cells; test: qPCR of MLL target genes; assay type: cell-based; conditions: 4 days
Description: (§4) Next, compound 1 was tested for its ability to change expression of characteristic MLL-r leukemia genes HoxA9, Meis1 and Myc. Myc is also overexpressed in a broad range of AML and other cancers. […] (Figure S5), presumably because SEC is not recruited there.
(§5) RNA extraction and Quantitative real-time PCR (qPCR). 10^5 cells/ml were incubated with a compound for 4 days and the RNA was extracted using RNeasy mini kit (#74104, Qiagen). 100-1000 ng of total RNA was reverse transcribed using iScript™ Reverse Transcription Supermix (Bio-Rad) using the manufacturer's protocol. Quantitative real-time PCR was carried out using Fast SYBR Green Master Mix (Applied Biosystems) according to the manufacturer's instructions. Measurements were performed in triplicate, using GAPDH as the reference gene. Real-time PCR was performed using Biosystems Step One Plus detection system. The following sequences of primers are used: […]

[18] = system: HoxA9, Meis1 and Myc expression in Molm-13 cells; test: qPCR of MLL target genes; assay type: cell-based; conditions: 4 days
Description: as §4, §5

[19] = target: T3, AF9-AF4 interaction (Homo sapiens, UniProt P42568); test: Alpha assay, AF9-AF4 interaction; assay type: binding; conditions: read-out: IC50, inhibition of AF9-AF4 interaction
T3 construct: cDNA for human AF9 AHD domain (475-568) and ENL AHD domain (489-559) was synthesized; made in house; host or cells: E. coli BL21(DE3)
Description: (§6) ENL is also a major MLL fusion partner (~10%). The AHD domains of human ENL and AF9 share a high homology with 82% identity and 89% similarity (Figure S1A). […] Our attempts to develop an Alpha assay for ENL-DOT1L failed. […] Compound 1's activity against ENL-DOT1L was therefore not determined.
as §2

[20] = target: T4, AF9-AFF4 interaction (Homo sapiens, UniProt P42568); test: Alpha assay, AF9-AFF4 interaction; assay type: binding; conditions: read-out: IC50, inhibition of AF9-AFF4 interaction
T4 construct: cDNA for human AF9 AHD domain (475-568) and ENL AHD domain (489-559) was synthesized; made in house; host or cells: E. coli BL21(DE3)
Description: as §6, §2

[21] = target: T5, ENL-AF4 interaction (Homo sapiens, UniProt Q03111); test: Alpha assay, ENL-AF4 interaction; assay type: binding; conditions: read-out: IC50, inhibition of ENL-AF4 interaction
T5 construct: ENL AHD domain (489-559) was synthesized (by Genscript) and inserted into the pMAL c5X expression plasmid; made in house; host or cells: E. coli BL21(DE3)
Description: as §6, §2

[22] = target: T6, ENL-AFF4 interaction (Homo sapiens, UniProt Q03111); test: Alpha assay, ENL-AFF4 interaction; assay type: binding; conditions: read-out: IC50, inhibition of ENL-AFF4 interaction
T6 construct: ENL AHD domain (489-559) was synthesized (by Genscript) and inserted into the pMAL c5X expression plasmid; made in house; host or cells: E. coli BL21(DE3)
Description: as §6, §2

[23] = target: T7, maltose-binding protein (MBP)-tagged AF9 AHD domain (475-568) (human, UniProt P42568 475-568); test: fluorescence polarisation; direct titration: fluorescein-labeled peptide 2 nM, increasing concentration of AF9/ENL protein; 20 mM HEPES, pH 7.5, 0.01% Triton X-100; 1 h incubation; conditions: both partners purified
T7 construct: human AF9, AHD domain, residues 475-568; cDNA synthesized by Genscript, in pMAL c5X; No cleavage of MBP is described; the protein is captured or detected by anti-MBP in the Alpha and pull-down assays; also called MBP-AF9 AHD; source: E. coli BL21(DE3), purified (amylose resin, size exclusion)
T7 sequence (looked up): T1 sequence (P42568 475-568)

[24] = target: T8, maltose-binding protein (MBP)-tagged ENL AHD domain (489-559) (human, UniProt Q03111 489-559); test: as above; conditions: both partners purified
T8 construct: human ENL, AHD domain, residues 489-559; cDNA synthesized by Genscript, in pMAL c5X; No cleavage of MBP is described; source: E. coli BL21(DE3), purified (amylose resin, size exclusion)
T8 sequence (looked up): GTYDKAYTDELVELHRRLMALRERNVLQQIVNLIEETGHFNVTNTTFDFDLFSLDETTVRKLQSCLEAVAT

CC(C)(C)c1ccc(-c2ccc(-n3cc(C(=O)NC4CCNCC4)nc3-c3ccccc3)cc2)cc1 [Compound 2]
IC50 [1]: 26.5 µM and ~25 µM | IC50 [2]: ~25 µM

O=C(NC1CCNCC1)c1cn(-c2ccc(-c3cn[nH]c3)cc2)c(-c2ccccc2)n1 [Compound 3]
IC50 [1]: > 50 µM | Beads-bound AF9 AHD in pull-down (Western blot) [3]: cannot | EC50 [4]: > 50 µM | EC50 [5]: > 50 µM | EC50 [6]: > 50 µM | EC50 [7]: > 50 µM | EC50 [8]: > 50 µM | EC50 [9]: > 50 µM | EC50 [10]: > 50 µM | EC50 [11]: > 50 µM | EC50 [12]: > 50 µM | EC50 [13]: > 50 µM | EC50 [14]: > 50 µM | EC50 [15]: > 50 µM | EC50 [16]: > 50 µM | Expression of MLL target genes HoxA9, Meis1 and Myc [17]: had no activity | Expression of MLL target genes HoxA9, Meis1 and Myc [18]: had no activity

CC(C)(C)c1ccc(-n2cc(C(=O)NC3CCNCC3)nc2C2CCCCC2)cc1 [Compound 4]
IC50 [1]: 24.8 µM

CC(C)c1nc(C(=O)NC2CCNCC2)cn1-c1ccc(C(C)(C)C)cc1 [Compound 5]
IC50 [1]: 7.8 µM

Cc1nc(C(=O)NC2CCNCC2)cn1-c1ccc(C(C)(C)C)cc1 [Compound 6]
IC50 [1]: > 50 µM

CC(C)(C)c1ccc(-n2cc(C(=O)Nc3ccncc3)nc2-c2ccccc2)cc1 [Compound 7]
IC50 [1]: 22.7 µM

CC(C)(C)c1ccc(-n2cc(C(=O)NCC3CCNCC3)nc2-c2ccccc2)cc1 [Compound 8]
IC50 [1]: 29.2 µM

CC(C)(C)c1ccc(-n2cc(C(=O)Nc3ccc(Cl)c(F)c3)nc2-c2ccccc2)cc1 [Compound 9]
IC50, inhibition of AF9-DOT1L interaction [1]: inactive | IC50 [1]: > 50 µM

NKLPVSIPLASVVLPSRAERARST [DOT1L]
IC50 [1]: 0.013 ± 0.001 µM | IC50 [19]: 0.06 ± 0.012 µM | IC50 [20]: 0.095 ± 0.016 µM | IC50 [21]: 13.2 ± 1.1 µM | IC50 [22]: 2 ± 0.1 µM | IC50 [2]: 0.072 µM

B1: FITC-AHX-AFF4 peptide (peptide)
peptide: {FITC-Ahx}-YPLIVKIDLNLLTRIPGKPYK
notes: Used in the FP assay; source: synthetic peptide, bought: Genscript
Kd [23]: 0.015 ± 0.001 µM | Kd [24]: 0.031 ± 0.006 µM

B2: FITC-AHX-DOT1L peptide (peptide)
peptide: {FITC-Ahx}-NKLPVSIPLASVVLPSRAERARST
notes: Used in the FP assay; also called fluorescein-labeled DOT1L peptide; source: synthetic peptide, bought: Genscript
Kd [23]: 0.087 ± 0.009 µM | Kd [24]: 0.64 ± 0.06 µM

B3: FITC-AHX-AF4 peptide (peptide)
peptide: {FITC-Ahx}-QSLMVKITLDLLSRIPQPPGK
notes: as for B1
Kd [23]: 0.018 ± 0.001 µM | Kd [24]: 0.0096 ± 0.0017 µM
